# In patent US3957978A, “Phosphonium anti-parasitics” (American Cyanamid Company, priority 1975, dated 1976):
# System: Nematospiroides dubius
# Assay: Evaluation (Efficacy) Test in Mice, Nematospiroides dubius
# Type: in vivo
# Details: for inhibition in vivo at 0.0125 %: 0.0125 % diet
# Excerpt: The primary target parasite of this test is Nematospiroides dubius (Family: Heligmosomidae), which is phylogenetically related to certain economically important parasites of domestic and farm animals. Mice are orally inoculated with 20 to 30 infective N. dubius larvae. Mixed infections are obtained by subsequent inoculation with Aspicularis tetraptera and Hymenolepis nana. Eighteen days after inoculation the mice are divided into groups of four. Each group receives one compound at a specified dose rate, either as a single gavage dose or fed continually in the feed. Four groups of five mice each are utilized as infected, untreated controls. […] Those mice receiving single oral doses (SOD) or a single subcutaneous injection (Sc) of 5 mg./kg. to 100 mg./kg. of animal body weight of the compound under test are treated 22 days after inoculation. Eight days after start of treatment (drug diet) and 4 days post treatment (single dose SOD or Sc), the mice are necropsied, the worms recovered and counted. Percent efficacy for Nematospiroides is calculated using the formula: % Efficacy Equals [formula]
# The diet used in the test procedures is a standard commercial mouse chow containing meat and bone meal, dried skimmed milk, wheat germ meal, fish meal, animal liver meal, dried beet pulp, ground extended corn, oat middlings, soybean meal, dehydrated alfalfa meal, cane molasses. animal fat preserved with BHA, vitamin B-12 supplement, calcium panthotenate, choline chloride, folic acid, riboflavin supplement, brewer's dried yeast, thiamine, niacin, vitamin A supplement, D activated plant sterol, vitamin E supplement, dicalcium phosphate, iodized salt, ferric ammonium citrate, iron oxide, manganous oxide, cobalt carbonate, copper oxide and zinc oxide; and the desired level of test compound.
# When the drug is administered as a single oral dose, the drug is weighed and suspended in 0.2% agar, thoroughly mixed and orally introduced at the required volume.
# [1] = Heligmosomoides polygyrus, po, 168 h, drug diet, 7 days, read-out: % Efficacy N.d.
# [2] = Heligmosomoides polygyrus, po, single oral dose, read-out: % Efficacy N.d.
Compound,"inhibition in vivo at 0.006 % (Heligmosomoides polygyrus, po, 168 h, drug diet, 0.006 % diet, 7 days, read-out: % Efficacy N.d.) [%]",inhibition in vivo at 0.0125 % [1] [%],inhibition in vivo at 25 mg/kg [2] [%],"% Efficacy N.d. (single oral dose, 5 mg/kg) [%]","% Efficacy N.d. (single oral dose, 10 mg/kg) [%]","inhibition in vivo at 0.025 % (Heligmosomoides polygyrus, po, 168 h, drug diet, 0.025 % diet, 7 days, read-out: % Efficacy N.d.) [%]","inhibition in vivo at 10 mg/kg (Heligmosomoides polygyrus, po, single oral dose, 10 mg/kg, read-out: % Efficacy N.d.) [%]","inhibition in vivo at 50 mg/kg (Heligmosomoides polygyrus, po, single oral dose, 50 mg/kg, read-out: % Efficacy N.d.) [%]"
"c1ccc([P+](C[P+](c2ccccc2)(c2ccccc2)c2ccccc2)(c2ccccc2)c2ccccc2)cc1 [Type I, R1 Phenyl, X Cl, methylenebis triphenylphosphonium dichloride]",85,100,96.5,85,84,,,
"C=CCC(=P(c1ccccc1)(c1ccccc1)c1ccccc1)[P+](c1ccccc1)(c1ccccc1)c1ccccc1 [Type II, R2 Allyl, X Br]",,33,86,,,100,60,100
